Test results published in US20060148055A1, “Oxidised fragments of apolioprotein B and their uses” (priority 1997, published 2006).
No end group written: not given here. MDA = malondialdehyde

Test system: U937 monocytes
Experiment: Inhibition of oxidised LDL uptake by peptides in monocytes in cell culture (DiI-labelled LDL fluorescence)
Assay type: cell-based
Conditions: versus oxidised LDL alone, ANOVA followed by Tukey post test
Experimental: An experiment was performed to determine in cell culture if uptake of oxidised LDL by U937 monocytes could be inhibited by the peptides according to SEQ ID NOs:1-3, both in their native state and conjugated to MDA.
LDL (1 mg/ml) was labelled with 1,1′-dioctadecyl-3,3,3′,3′,-tetramethylindocarbocyanine perchlorate (DiI) (300 μg/mg LDL) by incubation overnight at 37° C. in the dark under nitrogen. Excess DiI was removed by desalting into PBS (0.01 M phosphate buffer, 0.137 M sodium chloride, pH 7.4) through a PD-10 column.
U937 monocytes were maintained in RPMI media supplemented with heat inactivated fetal calf serum (10%) (FCS) and penicillin/streptomycin (1%). Cells were ‘starved’ of lipids by culturing in RMPI supplemented with penicillin/streptomycin (1%) in the absence of serum, and plated at 1 million cells per well in 6 well plates, 4 hours before treatment with DiI labelled LDL. […] Non-starved cells were also plated at 1 million cells per well in 6 well plates, 4 hours before treatment with DiI labelled LDL. Starved and non-starved cells were treated with DiI labelled LDL (oxidized) (50 μg) in the presence or absence of excess unlabelled peptide (native or MDA-conjugated) (500 μg) as competitor. […] Fluorescence was read at Ex 520 nm, Em 590 nm using a Molecular Devices Gemini XS microplate fluorimeter. […]

## RB1: peptide SEQ ID NO: 1 (ALQYKLEGTTR) MDA-conjugated (ALQYK(MDA)LEGTTR)
  inhibition of uptake of oxidised LDL by monocytes (in words): inhibition is statistically significant
Listed as peptide corresponding to SEQ ID NO:1 conjugated to MDA
  inhibition of uptake of oxidised LDL by monocytes (in words): inhibits uptake
